{"source": "patent US20230117757A1", "about": "“COENZYME Q PRODUCTION ACCELERATOR AND METHOD FOR ACCELERATING COENZYME Q PRODUCTION” (priority 2020, published 2023)", "system": "HEK293 cells (human embryonic kidney cells)", "experiment": "coenzyme Q10 production in mitochondria of HEK293 cells cultured with nicotinamide mononucleotide, quantified by LC-MS", "format": "cell-based", "details": "HEK293 cells cultured three days in DMEM medium with 1 mM or 2.5 mM β-nicotinamide mononucleotide daily added; control 0 mM", "method": "To examine a production promoting effect of coenzyme Q10 caused by nicotinamide mononucleotide, HEK293 cells (human embryonic kidney cells) were cultured for three days (37° C., 5% CO2) in DMEM medium containing β-nicotinamide mononucleotide with a predetermined concentration (0 mM (control), 1 mM, and 2.5 mM daily added). Three days after the first day of culture, mitochondria were isolated from the HEK293 cells, and contained amounts of each of the reduced form (ubiquinol) and the oxidized form (ubiquinone) of coenzyme Q10 in the mitochondria were quantified by LC-MS method (LC column: KINETEX C18 column (Phenomenex), MS: Shimadzu LCMS-8060 (Shimadzu Corporation), eluent: 10 mM ammonium formate in Methanol, flow rate: 0.5 mL/minute, detection: MS/MS analysis by multiple reaction monitoring (MRM) method; Q10H2 883.6→197.15 m/z, Q10 881.4→197.15 m/z, Q9H2 815.6→197.15 m/z, Q9 813.6→197.15 m/z, Q8H2 747.6→197.15 m/z, Q8 745.6→197.15 m/z) (column: ODS, column temperature: 40° C., eluent: 70% acetonitrile/methanol (1:1) and 30% 0.05 M ammonium formate (prepared to be pH 7.2 with 10% ammonia water), flow rate: 1.0 mL/minute, detection: UV276 nm). […]", "data": [{"smiles": "NC(=O)c1ccc[n+]([C@@H]2O[C@H](COP(=O)(O)O)[C@@H](O)[C@H]2O)c1", "note": "[nicotinamide mononucleotide]", "values": [{"measurement": "sum amount of the reduced form and the oxidized form of coenzyme Q10 in the mitochondria, change vs control", "value": "approximately doubled"}]}]}
